# Laboratory results: ChEMBL document CHEMBL1201862, “PubChem BioAssay data set” (2004)
#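 Five compound concentrations were applied to cells in 96-well plates for 48 hours; endpoints were derived by simple linear interpolation of the resulting dose-response curve. GI50: concentration for 50% inhibition of growth.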 Activity calls are given as the source filed them. No stated cut-off is given here; in the data, active = GI50 up to about 1.1 µM and inactive = higher.
# Experiments:
# Assay in all cases: NCI tumour cell line growth inhibition, 48 h
# RPMI-8226 = test system: RPMI-8226
# OVCAR-4 = test system: OVCAR-4
# MOLT-4 = test system: MOLT-4
# M14 = test system: M14
# SNB-75 = test system: SNB-75
# ACHN = test system: ACHN
# CCRF-CEM = test system: CCRF-CEM
# CAKI-1 = test system: CAKI-1
# OVCAR-8 = test system: OVCAR-8
# U-251 = test system: U-251
# TK-10 = test system: TK-10
# SF-539 = test system: SF-539
# HCT-15 = test system: HCT-15
# COLO 205 = test system: COLO 205
# NCI-H226 = test system: NCI-H226
# A549 = test system: A549
# SN12C = test system: SN12C
# SK-MEL-28 = test system: SK-MEL-28
# HOP-62 = test system: HOP-62
# SK-MEL-5 = test system: SK-MEL-5
Structure (SMILES),GI50 (RPMI-8226),GI50 (OVCAR-4),GI50 (MOLT-4),GI50 (M14),GI50 (SNB-75),GI50 (ACHN),GI50 (CCRF-CEM),GI50 (CAKI-1),GI50 (OVCAR-8),GI50 (U-251),GI50 (TK-10),GI50 (SF-539),GI50 (HCT-15) [µM],GI50 (COLO 205),GI50 (NCI-H226),GI50 (A549),GI50 (SN12C),GI50 (SK-MEL-28),GI50 (HOP-62),GI50 (SK-MEL-5)
Cc1cc(C)c2c(c1)CN1CN2Cc2cc(C)cc(C)c21,19.9 µM (inactive),18.3 µM (inactive),22.4 µM (inactive),18.2 µM (inactive),4.36 µM (inactive),18 µM (inactive),24.6 µM (inactive),34.1 µM (inactive),17.8 µM (inactive),17.5 µM (inactive),19 µM (inactive),> 10 µM (inactive),> 10,22.1 µM (inactive),26 µM (inactive),27.2 µM (inactive),16.9 µM (inactive),16.5 µM (inactive),18.7 µM (inactive),–
CC1(C)Cc2c(oc3ncnc(N)c23)CS1,> 100 µM (inactive),> 100 µM (inactive),> 100 µM (inactive),> 100 µM (inactive),> 100 µM (inactive),> 100 µM (inactive),> 100 µM (inactive),> 100 µM (inactive),> 100 µM (inactive),> 100 µM (inactive),–,> 100 µM (inactive),> 100,> 100 µM (inactive),89.7 µM (inactive),> 100 µM (inactive),> 100 µM (inactive),–,> 100 µM (inactive),> 100 µM (inactive)
COc1ccc(CC(C#N)c2cc(OC)c(OC)c(OC)c2)cc1 (centres undefined),0.0741 µM (active),7.29 µM (inactive),0.121 µM (active),0.0472 µM (active),0.0475 µM (active),0.796 µM (active),0.0668 µM (active),0.0455 µM (active),0.135 µM (active),0.0568 µM (active),–,0.0436 µM (active),0.0276,0.029 µM (active),0.773 µM (active),0.0525 µM (active),0.135 µM (active),0.0619 µM (active),0.0869 µM (active),0.0266 µM (active)
OCc1cc2c([nH]c3ccccc32)c(C(O)CO)n1 (centres undefined),> 100 µM (inactive),> 100 µM (inactive),> 100 µM (inactive),> 100 µM (inactive),> 100 µM (inactive),> 100 µM (inactive),> 100 µM (inactive),> 100 µM (inactive),> 100 µM (inactive),> 100 µM (inactive),> 100 µM (inactive),> 100 µM (inactive),> 100,> 100 µM (inactive),> 100 µM (inactive),> 100 µM (inactive),> 100 µM (inactive),> 100 µM (inactive),–,> 100 µM (inactive)
Cc1cccc(N(CC(=O)O)S(=O)(=O)c2ccccc2)c1,> 100 µM (inactive),> 100 µM (inactive),> 100 µM (inactive),> 100 µM (inactive),> 100 µM (inactive),> 100 µM (inactive),> 100 µM (inactive),> 100 µM (inactive),> 100 µM (inactive),> 100 µM (inactive),> 100 µM (inactive),> 100 µM (inactive),> 100,> 100 µM (inactive),> 100 µM (inactive),> 100 µM (inactive),> 100 µM (inactive),> 100 µM (inactive),–,> 100 µM (inactive)
O=C(CCC(=O)Nc1cccc(Cl)c1)CC(=O)c1ccc(F)cc1,> 100 µM (inactive),> 100 µM (inactive),> 100 µM (inactive),> 100 µM (inactive),> 100 µM (inactive),> 100 µM (inactive),–,> 100 µM (inactive),> 100 µM (inactive),–,> 100 µM (inactive),> 100 µM (inactive),> 100,> 100 µM (inactive),> 100 µM (inactive),> 100 µM (inactive),> 100 µM (inactive),> 100 µM (inactive),> 100 µM (inactive),–
COC(=O)C(=O)C(C(=O)C(=O)Nc1cccc(OC)c1)c1nc2ccc(Cl)cc2nc1O (centres undefined),> 100 µM (inactive),> 100 µM (inactive),> 100 µM (inactive),> 100 µM (inactive),> 100 µM (inactive),> 100 µM (inactive),12.9 µM (inactive),> 100 µM (inactive),> 100 µM (inactive),> 100 µM (inactive),> 100 µM (inactive),> 100 µM (inactive),> 100,> 100 µM (inactive),> 100 µM (inactive),> 100 µM (inactive),> 100 µM (inactive),> 100 µM (inactive),–,> 100 µM (inactive)
CCOC(=O)c1cc2c3ccn(Cc4ccccc4)c3c3c(C)noc3c2[nH]1,> 100 µM (inactive),> 100 µM (inactive),> 100 µM (inactive),> 100 µM (inactive),74.6 µM (inactive),> 100 µM (inactive),> 100 µM (inactive),> 100 µM (inactive),> 100 µM (inactive),> 100 µM (inactive),> 100 µM (inactive),–,> 100,> 100 µM (inactive),> 100 µM (inactive),> 100 µM (inactive),> 100 µM (inactive),> 100 µM (inactive),> 100 µM (inactive),> 100 µM (inactive)
Cc1c(C(=O)/C=C/c2ccc3c(c2)OCO3)[n+]([O-])c2ccccc2[n+]1[O-],27 µM (inactive),40.6 µM (inactive),22.9 µM (inactive),28.1 µM (inactive),26.1 µM (inactive),35.6 µM (inactive),32.9 µM (inactive),25.9 µM (inactive),23.8 µM (inactive),30.3 µM (inactive),36.1 µM (inactive),22.5 µM (inactive),–,27.7 µM (inactive),16 µM (inactive),32.7 µM (inactive),23 µM (inactive),61 µM (inactive),> 100 µM (inactive),–
O=C(Nc1ccc(Cl)cc1)c1cc(S(=O)(=O)Nc2n[nH]c(=O)[nH]2)c(SSc2cc(Cl)c(C(=O)Nc3ccc(Cl)cc3)cc2S(=O)(=O)Nc2n[nH]c(=O)[nH]2)cc1Cl,> 100 µM (inactive),> 100 µM (inactive),> 100 µM (inactive),> 100 µM (inactive),88.1 µM (inactive),> 100 µM (inactive),> 100 µM (inactive),> 100 µM (inactive),> 100 µM (inactive),> 100 µM (inactive),> 100 µM (inactive),–,> 100,> 100 µM (inactive),> 100 µM (inactive),> 100 µM (inactive),> 100 µM (inactive),> 100 µM (inactive),> 100 µM (inactive),> 100 µM (inactive)
CSc1nc2c(c(=O)[nH]1)N=C(c1ccccc1)CC(c1ccccc1)N2 (centres undefined),28.5 µM (inactive),30.3 µM (inactive),18.9 µM (inactive),32.2 µM (inactive),11.7 µM (inactive),25.6 µM (inactive),26.1 µM (inactive),32.1 µM (inactive),28 µM (inactive),34 µM (inactive),–,23.2 µM (inactive),–,41.7 µM (inactive),39.7 µM (inactive),32.1 µM (inactive),21.2 µM (inactive),50.6 µM (inactive),38.8 µM (inactive),28.1 µM (inactive)
